# Measured values from the supplement of paper PMC6045584.
# ± gives the standard deviation of the averaged measurements.
# Compound: C[C@]1(O)C[C@@H](c2nc(-c3ccc4ccc(-c5ccccc5)nc4c3)c3c(N)nccn32)C1 [OSI-906]
# Test: surviving fraction relative to DMSO-only wells; higher = less growth inhibition
# Conditions: 50 nM; exposure time: 5 days
# How it was run: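 Viability values are CellTiter-Glo luminescence readings, given as surviving fraction against the median of DMSO-only wells. The readings were taken after 10 minutes at room temperature, following five days of continuous exposure to inhibitors at 0.5, 1, 5, 10, 50, 100, 500 and 1000 nM that began 24 hours after log-phase tumour cell lines were seeded at 250–500 cells per well in 384-well plates. Every line was screened three times and kept only if replicate Pearson r >0.7 and median Z' >0.3.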
row,Test System,surviving fraction
1,MFM223 BREAST,1.05 ± 0.095
2,MG63 BONE,0.971 ± 0.03
3,MHM BONE,0.91 ± 0.05
4,NCIH441 LUNG,1.04 ± 0.034
5,NOS1 BONE,1 ± 0.059
6,NY BONE,1 ± 0.011
7,OS25HAL BONE,0.854 ± 0.039
8,OSHN BONE,0.945 ± 0.0072
9,RDES SOFT TISSUE,1.1 ± 0.019
10,SCC47 HEADNECK,1.091 ± 0.0056
11,SCC90 HEADNECK,1.03 ± 0.098
12,SG27 HEADNECK,1 ± 0.054
13,SG28 HEADNECK,0.88 ± 0.06
14,SG31 HEADNECK,1 ± 0.22
15,SG32 HEADNECK,0.845 ± 0.021
16,SG43 HEADNECK,0.695 ± 0.051
17,SIHA CERVIX,1.04 ± 0.057
18,SJSA1 BONE,0.917 ± 0.21
19,SKBR3 BREAST,1.05 ± 0.11
20,SNU475 LIVER,0.942 ± 0.037
21,SUM44 BREAST,1.01 ± 0.17
22,SUM149.B1*.S BREAST,0.974 ± 0.037
23,SUM159 BREAST,0.977 ± 0.013
24,SYO1 SYNOVIAL,0.838 ± 0.055
25,T47D BREAST,0.982 ± 0.058
26,U2OS BONE,0.967 ± 0.038
27,VCAP PROSTATE,0.942 ± 0.16
28,VP229 BREAST,0.925 ± 0.1
29,YAMATO SYNOVIAL,1.36 ± 0.22
30,ZR751 BREAST,0.819 ± 0.091

# Same assay, conditions: 100 nM; exposure time: 5 days
row,Test System,surviving fraction
1,MFM223 BREAST,1.02 ± 0.088
2,MG63 BONE,0.943 ± 0.018
3,MHM BONE,0.872 ± 0.013
4,NCIH441 LUNG,1.03 ± 0.028
5,NOS1 BONE,0.884 ± 0.057
6,NY BONE,0.977 ± 0.035
7,OS25HAL BONE,0.762 ± 0.016
8,OSHN BONE,0.927 ± 0.013
9,RDES SOFT TISSUE,1.05 ± 0.086
10,SCC47 HEADNECK,1.07 ± 0.062
11,SCC90 HEADNECK,1.02 ± 0.027
12,SG27 HEADNECK,0.946 ± 0.044
13,SG28 HEADNECK,0.867 ± 0.089
14,SG31 HEADNECK,0.833 ± 0.1
15,SG32 HEADNECK,0.793 ± 0.071
16,SG43 HEADNECK,0.665 ± 0.06
17,SIHA CERVIX,1.01 ± 0.065
18,SJSA1 BONE,1.62 ± 0.052
19,SKBR3 BREAST,0.871 ± 0.11
20,SNU475 LIVER,0.921 ± 0.013
21,SUM44 BREAST,0.965 ± 0.14
22,SUM149.B1*.S BREAST,0.947 ± 0.004
23,SUM159 BREAST,0.95 ± 0.021
24,SYO1 SYNOVIAL,0.897 ± 0.033
25,T47D BREAST,0.954 ± 0.028
26,U2OS BONE,0.914 ± 0.026
27,VCAP PROSTATE,0.83 ± 0.064
28,VP229 BREAST,0.867 ± 0.048
29,YAMATO SYNOVIAL,1.46 ± 0.13
30,ZR751 BREAST,0.795 ± 0.076

# Same assay, conditions: 500 nM; exposure time: 5 days
row,Test System,surviving fraction
1,MFM223 BREAST,1.09 ± 0.013
2,MG63 BONE,0.896 ± 0.017
3,MHM BONE,0.78 ± 0.022
4,NCIH441 LUNG,0.841 ± 0.019
5,NOS1 BONE,0.465 ± 0.028
6,NY BONE,0.903 ± 0.023
7,OS25HAL BONE,0.354 ± 0.015
8,OSHN BONE,0.758 ± 0.012
9,RDES SOFT TISSUE,0.84 ± 0.015
10,SCC47 HEADNECK,1 ± 0.011
11,SCC90 HEADNECK,0.971 ± 0.019
12,SG27 HEADNECK,0.807 ± 0.086
13,SG28 HEADNECK,0.692 ± 0.021
14,SG31 HEADNECK,0.615 ± 0.042
15,SG32 HEADNECK,0.596 ± 0.084
16,SG43 HEADNECK,0.697 ± 0.021
17,SIHA CERVIX,0.935 ± 0.046
18,SJSA1 BONE,0.785 ± 0.31
19,SKBR3 BREAST,0.786 ± 0.07
20,SNU475 LIVER,0.944 ± 0.011
21,SUM44 BREAST,0.887 ± 0.18
22,SUM149.B1*.S BREAST,0.943 ± 0.032
23,SUM159 BREAST,0.953 ± 0.012
24,SYO1 SYNOVIAL,0.897 ± 0.034
25,T47D BREAST,0.868 ± 0.018
26,U2OS BONE,0.872 ± 0.026
27,VCAP PROSTATE,0.399 ± 0.046
28,VP229 BREAST,0.767 ± 0.14
29,YAMATO SYNOVIAL,1.17 ± 0.21
30,ZR751 BREAST,0.634 ± 0.08

# Same assay, conditions: 1000 nM; exposure time: 5 days
row,Test System,surviving fraction
1,MFM223 BREAST,1.04 ± 0.017
2,MG63 BONE,0.9223 ± 0.0068
3,MHM BONE,0.721 ± 0.018
4,NCIH441 LUNG,0.737 ± 0.048
5,NOS1 BONE,0.462 ± 0.029
6,NY BONE,0.915 ± 0.038
7,OS25HAL BONE,0.256 ± 0.037
8,OSHN BONE,0.732 ± 0.027
9,RDES SOFT TISSUE,0.555 ± 0.032
10,SCC47 HEADNECK,1.04 ± 0.11
11,SCC90 HEADNECK,0.981 ± 0.078
12,SG27 HEADNECK,0.617 ± 0.069
13,SG28 HEADNECK,0.547 ± 0.034
14,SG31 HEADNECK,0.493 ± 0.042
15,SG32 HEADNECK,0.498 ± 0.048
16,SG43 HEADNECK,0.614 ± 0.021
17,SIHA CERVIX,0.966 ± 0.026
18,SJSA1 BONE,0.388 ± 0.031
19,SKBR3 BREAST,0.681 ± 0.062
20,SNU475 LIVER,0.963 ± 0.015
21,SUM44 BREAST,0.862 ± 0.13
22,SUM149.B1*.S BREAST,0.888 ± 0.057
23,SUM159 BREAST,0.927 ± 0.016
24,SYO1 SYNOVIAL,0.873 ± 0.016
25,T47D BREAST,0.85 ± 0.018
26,U2OS BONE,0.863 ± 0.026
27,VCAP PROSTATE,0.188 ± 0.029
28,VP229 BREAST,0.665 ± 0.11
29,YAMATO SYNOVIAL,1.12 ± 0.077
30,ZR751 BREAST,0.462 ± 0.022
